Experimental data reported in paper PMC7704793 (Bioorganic & medicinal chemistry letters, 2020).

What was measured:
MRSA ATCC 43300 = test: Inhibition of MRSA biofilm formation, crystal violet reporter assay; type: cell-based, Staphylococcus aureus; conditions: SAR discussion
CCD-18 Co cells = test: MTT cytotoxicity assay in normal human colon cells; type: cell-based; conditions: day 1, CCD-18 Co cells

## Cc1ccc(-c2cc(-c3nc4ccccc4c(=O)[nH]3)nc(N)n2)cc1 [Compound 5b]
MRSA ATCC 43300
  MRSA biofilm inhibition activity compared to the parent 5a (in words): reduced activity

## COc1ccc(-c2cc(-c3nc4ccccc4c(=O)[nH]3)nc(N)n2)cc1OC [Compound 5e]
MRSA ATCC 43300
  MRSA biofilm inhibition activity compared to the parent 5a (in words): reduced activity

## COc1cc(OC)c(-c2cc(-c3nc4ccccc4c(=O)[nH]3)nc(N)n2)c(OC)c1 [Compound 5h]
CCD-18 Co cells; 50 μM, versus DMSO controls
  cellular toxicity (MTT): minimal

## Nc1nc(-c2cccc(OCc3ccccc3)c2)cc(-c2nc3ccccc3c(=O)[nH]2)n1 [Compound 5r]
MRSA ATCC 43300
  MRSA biofilm inhibition activity compared to the parent 5a (in words): reduced activity

## CSc1ccc(-c2cc(-c3nc4ccccc4c(=O)[nH]3)nc(N)n2)cc1 [Compound 5j]
CCD-18 Co cells; 50 μM, versus DMSO controls
  cellular toxicity (MTT): more cytotoxic

## COc1cc(-c2cc(-c3nc4ccccc4c(=O)[nH]3)nc(N)n2)cc(OC)c1OC [Compound 5i]
MRSA ATCC 43300
  MRSA biofilm inhibition activity compared to the parent 5a (in words): considerably reduced activity

## Nc1nc(-c2cccc(Br)c2)cc(-c2nc3ccccc3c(=O)[nH]2)n1 [Compound 5k]
CCD-18 Co cells; 12.5 μM (lowest concentration used)
  cellular toxicity (MTT): significant toxicity
